Reference: patent US10500226B2, “Alginate compositions and uses thereof” (Hadasit Medical Research Services and Development Ltd., priority 2012, dated 2019)

Tested on: serum ALT (alanine aminotransferase)
Test: Concanavalin A mouse model: serum ALT
Format: in vivo, C57BL/6 (B6) mice
Text: Injection of the T-cell mitogenic plant lectin concanavalin A (Con A) to non-sensitized mice results in hepatic apoptosis that precedes necrosis. The concanvalin A (Con A) model is a widely utilized mouse model, which mimics many aspects of human autoimmune hepatitis. It induces a massive liver necrosis in mice, simultaneously with lymphocyte infiltration into the liver, high levels of apoptotic hepatocytes and elevated serum alanine aminotransferase (ALT) and aspartate aminotransferase (AST). The liver injury is mediated by natural killer T (NKT) cells. Several apoptosis-related effector molecules, IFN-γ and TNF-α take part in the NKT cell-mediated liver injury. The immune-mediated liver injury which develops in the Con A model is very rapid, taking less than 48 hours. The peak for liver enzymes and pro-inflammtory cytokines is after less than 15 hours, making the model particularly useful for screening anti-inflammatory agents.
Tested solutions were administered intraperitoneally by injection of a volume of 200 μl per mouse or by administration per os of 250 μl per mouse, 1 hour before concanavalin A (Con A) administration. Saline (0.15 M NaCl) served as a negative control test solution.
Con A was dissolved at a concentration of 16 mg/kg in 200 μl of 50 mM Tris (pH 7), with 150 mM NaCl, and 4 mM CaCl2, and injected (at a dose of 0.4 mg/mouse) intravenously into the tail vein of mice. Sera from individual mice were obtained 6, 24 and 48 hours (14 hours in some experiments) after Con A injection. All mice were sacrificed after 48 hours (14 hours in some experiments).
Serum albumin levels after 48 hours were measured by an automatic analyzer.
The solutions were administered intraperitoneally to adult male C57BL mice at a dose of 200 μl per mouse. One hour later, the mice were challenged with an intravenous injection of concanavalin A (Con A), as described hereinabove. […] Each treatment group contained 4-5 mice. Serum levels of ALT, albumin, and the pro-inflammatory cytokines IL-6 and interferon-γ (IFNγ) were determined as described hereinabove.

## C[C@@H]1C[C@H]2[C@@H]3CCC4=CC(=O)C=C[C@]4(C)[C@@]3(F)[C@@H](O)C[C@]2(C)[C@@]1(O)C(=O)CO [Dexamethasone]
2% solutions i.p., 14 hours after Con A administration
  serum ALT levels: 203±14 units/liter
Table 3, 200 μl i.p. 1 hour before Con A (dexamethasone per os), 6 hours after Con A
  Serum levels of ALT: 146 ± 50 units/liter
Table 3, 200 μl i.p. 1 hour before Con A (dexamethasone per os), 24 hours after Con A
  Serum levels of ALT: 162 ± 50 units/liter
Table 3, 200 μl i.p. 1 hour before Con A (dexamethasone per os), 48 hours after Con A
  Serum levels of ALT: 69 ± 19 units/liter
Table 4 (hyaluronan comparison), i.p. before Con A, 6 hours after Con A
  Serum levels of ALT: 83 ± 21 units/liter
Table 4 (hyaluronan comparison), i.p. before Con A, 24 hours after Con A
  Serum levels of ALT: 68 ± 4 units/liter
Table 4 (hyaluronan comparison), i.p. before Con A, 48 hours after Con A
  Serum levels of ALT: 76 ± 23 units/liter
Table 5 (biotinylated alginate, 2%), before Con A, 6 hours after Con A
  Serum levels of ALT: 74 ± 5 units/liter
Table 5 (biotinylated alginate, 2%), before Con A, 24 hours after Con A
  Serum levels of ALT: 62 ± 14 units/liter
Table 5 (biotinylated alginate, 2%), before Con A, 48 hours after Con A
  Serum levels of ALT: 65 ± 16 units/liter
Table 6 (γ-irradiated alginate comparison), 6 hours after Con A
  Serum levels of ALT: 28 ± 10 units/liter
Table 6 (γ-irradiated alginate comparison), 24 hours after Con A
  Serum levels of ALT: 126 ± 37 units/liter
Table 6 (γ-irradiated alginate comparison), 48 hours after Con A
  Serum levels of ALT: 68 ± 7 units/liter
Table 7, per os 250 μl 1 hour before Con A, 6 hours after Con A
  Serum levels of ALT: 46 ± 6 units/liter
Table 7, per os 250 μl 1 hour before Con A, 24 hours after Con A
  Serum levels of ALT: 65 ± 10 units/liter
Table 7, per os 250 μl 1 hour before Con A, 48 hours after Con A
  Serum levels of ALT: 139 ± 26 units/liter
Table 8, per os, repeat with other alginates, 6 hours after Con A
  Serum levels of ALT: 33 ± 12 units/liter
Table 8, per os, repeat with other alginates, 24 hours after Con A
  Serum levels of ALT: 37 ± 10 units/liter
Table 8, per os, repeat with other alginates, 48 hours after Con A
  Serum levels of ALT: 31 ± 5 units/liter
